Holding throughout (format): cell-based
For experiment [1], the system named is Human renal proximal tubular cells HK2. The experiment can be described thus: inhibitory effect in human renal fibrosis cell model (TGFβ1-stimulated), qPCR of fibrosis gene mRNA. The conditions noted are these: for therapeutic effect on renal fibrosis: overall conclusion from the HK2 cell model; for difference from the positive drug hydronidone group: renal fibrosis cells, hydronidone 20µmol. As to the method: (§1) In embodiments, the method for detecting the inhibitory effect of micropeptide OFMP in a fibrotic cell model by the real-time fluorescence quantitative PCR method comprises: • counting and inoculating human hepatic stellate cells LX-2, human non-small cell lung cancer cell line A549, and human renal proximal tubular cells HK2 to culture plates; • except for the control group, adding 10nmol of recombinant human TGFβ1 stimulating factor to stimulate continuously for 24 h; • extracting and collecting the total RNA of the cell samples with a TRIzol reagent, and then reverse-transcribing the extracted total RNA using a reverse transcription reagent, and performing qPCR reaction using the qPCR premix solution; and • detecting mRNA expression levels of genes Colla1 and α-SMA using a real-time fluorescence quantitative PCR instrument.
(§2) According to the TRIzol reagent manual of Life Invitrogen, the total RNA of the cell samples was extracted and collected. Then, the purity and concentration of the extracted RNA was quantified by a NanoDrop 2000 ultra micro spectrophotometer. The integrity of the extracted RNA was inspected and ensured by agarose gel electrophoresis. A reverse transcription reagent HiScript® III RT SuperMix for qPCR (+ genomic DNA wiper) was used to perform reverse transcription on the extracted total RNA and a qPCR premix liquid ChamQ SYBR qPCR Master Mix was used to perform qPCR reaction.
(§3) After the above components were mixed well, the following procedure proceeded: initial denaturation 95°C 30s, 95°C 10s, 60°C 30s, 50 cycles. After the qPCR reaction was completed, the Cq value of each sample well was collected. The maximum error of the Cq values among the three duplicate wells of each sample should be no more than 0.5 to ensure data accuracy.
(§4) Human renal proximal tubular cells HK2 were cultured in a 37°C 5% CO2 cell incubator until the cell density was above 80%, and the cells were digested and collected by trypsin, and centrifuged. After the supernatant was discarded, the cells were counted by a cell counter, inoculated to six-well cell culture plates, and put into a 37°C 5% CO2 cell incubator to continue the culturing. The culture medium was sucked out after the cells were cultured for 24 h, a 2‰ DMSO solvent was added as a negative control, 20µmol of hydronidone was added as a positive control, 40µmol, 10µmol, 2.5µmol, 625nmol and 156nmol of the synthetic peptide OFMP were added in the equal proportion for other groups as administration groups, 10nmol of recombinant human TGFβ1 stimulating factor was added to other groups except the control groups half an hour later to continuously stimulate for 24 h, and the mRNA expression levels of genes Colla1, TGFβ1 and CTGF in OFMP3178, and the mRNA expression levels of genes Colla1 and α-SMA in OFMP2067 and OFMP1080 were detected.
Background: Quantitative PCR measures a nucleic acid by following its amplification.

Experiment [2] concerns Human non-small cell lung cancer cell line A549. The experiment can be described thus: inhibitory effect in human pulmonary fibrosis cell model (TGFβ1-stimulated), qPCR of fibrosis gene mRNA. Conditions: for therapeutic effect on pulmonary fibrosis: overall conclusion from the A549 cell model; for difference from the positive drug Nintedanib group: pulmonary fibrosis cells, Nintedanib 2µmol. As to the method: as §1, §2, §3
as §4, with “non-small cell lung cancer cell line A549 was” for “renal proximal tubular cells HK2 were”, “2µmol” for “20µmol”, “Nintedanib” for “hydronidone”

Experiment [3] deals with human hepatic stellate cells LX-2. Kind of experiment: inhibitory effect in human liver fibrosis cell model (TGFβ1-stimulated), qPCR of fibrosis gene mRNA. The conditions noted are these: for difference from the positive drug hydronidone group: liver fibrosis cells, hydronidone 20µmol; for therapeutic effect on liver fibrosis: overall conclusion from the LX-2 cell model. As to the method: as §1, §2, §3
as §4, with “Human hepatic stellate cells LX-2, human non-small cell lung cancer cell line A549, and human” for “Human”

[4] abbreviates: different concentrations (40µmol to 156nmol), 10nmol TGFβ1, 24 h, compared with the model group.

The text below walks through data of patent publication EP4793281A1, “ORGAN FIBROSIS-RELATED MICROPEPTIDE (OFMP) AND USE THEREOF” (Nanjing Anji Biological Technology Co., Ltd., priority 2023, dated 2025).

Turning to “OFMP1080 (MRHRLVSLSVTSCVTPAAGTRRGSAGAVGTNTGRGGPPPHALRASGEQSPAQGVS)”, the entries for the “mRNA expression level of gene Colla1 in renal fibrosis cells” value in experiment [1] (setting [4]) and in experiment [1] (treatment condition 40µmol-24h) were “significantly decreased” and “most significant decrease”, respectively. Further, in experiment [1], the “therapeutic effect on renal fibrosis” value is on record as “good therapeutic effect”. Also, the “mRNA expression level of gene Colla1 in pulmonary fibrosis cells” value in experiment [2] (setting [4]) is “significantly decreased”; in experiment [2] (treatment condition 10µmol-24h), “most significant decrease”. Also, the “therapeutic effect on pulmonary fibrosis” value in experiment [2] is on record as “good therapeutic effect”. In addition, the “mRNA expression level of gene Colla1 in liver fibrosis cells” value is recorded as “significantly decreased” in experiment [3] (setting [4]) and “most significant decrease” in experiment [3] (treatment condition 40µmol-24h). Further, in experiment [3], the “difference from the positive drug hydronidone group” value was “not a significant difference”. In addition, the “therapeutic effect on liver fibrosis” value in experiment [3] is recorded as “good therapeutic effect”. The “mRNA expression level of gene α-SMA in liver fibrosis cells” value in experiment [3] (treatment condition 40µmol-24h) is given as “most significant decrease”.

In the case of “OFMP3178 (MSLSICTLCLLPRRQEYCILKVPGLLFFLITNDLGSSDHSCLPRVKVPFKALLPGEL)”, in experiment [1] (setting [4]), the “mRNA expression level of gene CTGF in renal fibrosis cells” value is “significantly decreased”, the “mRNA expression level of gene Colla1 in renal fibrosis cells” value is “significantly decreased” and the “mRNA expression level of gene TGFβ1 in renal fibrosis cells” value is listed as “significantly decreased”. For the same substance, in experiment [1], the “therapeutic effect on renal fibrosis” value is reported as “good therapeutic effect” and the “difference from the positive drug hydronidone group” value is given as “a significant difference”. In experiment [1] (treatment condition 40µmol-24h), the “mRNA expression level of gene CTGF in renal fibrosis cells” value is “most significant decrease”, the “mRNA expression level of gene Colla1 in renal fibrosis cells” value is recorded as “most significant decrease” and the “mRNA expression level of gene TGFβ1 in renal fibrosis cells” value was “most significant decrease”. In addition, in experiment [2] (setting [4]), the “mRNA expression level of gene CTGF in pulmonary fibrosis cells” value is “significantly decreased”, the “mRNA expression level of gene Colla1 in pulmonary fibrosis cells” value is “significantly decreased” and the “mRNA expression level of gene TGFβ1 in pulmonary fibrosis cells” value was “significantly decreased”. In experiment [2], the “therapeutic effect on pulmonary fibrosis” value is reported as “good therapeutic effect” and the “difference from the positive drug Nintedanib group” value is recorded as “a significant difference”. Besides, in experiment [2] (treatment condition 40µmol-24h), the “mRNA expression level of gene CTGF in pulmonary fibrosis cells” value is “most significant decrease”, the “mRNA expression level of gene Colla1 in pulmonary fibrosis cells” value was “most significant decrease” and the “mRNA expression level of gene TGFβ1 in pulmonary fibrosis cells” value was “most significant decrease”. Further, in experiment [3] (setting [4]), the “mRNA expression level of gene CTGF in liver fibrosis cells” value is “significantly decreased” and the “mRNA expression level of gene Colla1 in liver fibrosis cells” value is recorded as “significantly decreased”. In addition, in experiment [3], the “difference from the positive drug hydronidone group” value is given as “a significant difference” and the “therapeutic effect on liver fibrosis” value is “good therapeutic effect”. Also, in experiment [3] (treatment condition 40µmol-24h), the “mRNA expression level of gene CTGF in liver fibrosis cells” value is “most significant decrease” and the “mRNA expression level of gene Colla1 in liver fibrosis cells” value is “most significant decrease”.

For the substance “OFMP2067 (MHLDHSDPITRDHMGSVMAQVRQKLFQFLQAEPHNSLGKAARRLSLMLHGLVTPSLP)”, in experiment [1] (setting [4]), the “mRNA expression level of gene Colla1 in renal fibrosis cells” value is on record as “significantly decreased” and the “mRNA expression level of gene α-SMA in renal fibrosis cells” value was “significantly decreased”. In experiment [1], the “therapeutic effect on renal fibrosis” value was “good therapeutic effect” and the “difference from the positive drug hydronidone group” value was “a significant difference”. Moreover, in experiment [1] (treatment condition 40µmol-24h), the “mRNA expression level of gene Colla1 in renal fibrosis cells” value was “most significant decrease” and the “mRNA expression level of gene α-SMA in renal fibrosis cells” value is reported as “most significant decrease”. Moreover, in experiment [2] (setting [4]), the “mRNA expression level of gene Colla1 in pulmonary fibrosis cells” value is listed as “significantly decreased” and the “mRNA expression level of gene α-SMA in pulmonary fibrosis cells” value is “significantly decreased”. Besides, in experiment [2], the “therapeutic effect on pulmonary fibrosis” value was “good therapeutic effect” and the “difference from the positive drug Nintedanib group” value is reported as “a significant difference”. In experiment [2] (treatment condition 40µmol-24h), the “mRNA expression level of gene Colla1 in pulmonary fibrosis cells” value was “most significant decrease” and the “mRNA expression level of gene α-SMA in pulmonary fibrosis cells” value was “most significant decrease”. In addition, in experiment [3] (setting [4]), the “mRNA expression level of gene Colla1 in liver fibrosis cells” value was “significantly decreased” and the “mRNA expression level of gene α-SMA in liver fibrosis cells” value is “significantly decreased”. Besides, in experiment [3], the “difference from the positive drug hydronidone group” value was “a significant difference” and the “therapeutic effect on liver fibrosis” value is “good therapeutic effect”. For the same substance, in experiment [3] (treatment condition 40µmol-24h), the “mRNA expression level of gene Colla1 in liver fibrosis cells” value is listed as “most significant decrease” and the “mRNA expression level of gene α-SMA in liver fibrosis cells” value is on record as “most significant decrease”.
